Reference: US20260183369A1, “CHEMERIN-CONTAINING FORMULATION FOR TREATING DRY EYE DISEASE” (OKYO Pharma Limited, priority 2022, published 2026)
Where two headings read alike, the source gives them in different places. Square brackets hold non-standard residues; d marks the D form. Peptide text beside a SMILES is read from it. * marks the point of attachment. PEG8 = NCCOCCOCCOCCOCCOCCOCCOCCOCCC(=O)O; Palmitoyl = CCCCCCCCCCCCCCCC(=O)*; Tic = O=C(O)[C@@H]1Cc2ccccc2CN1

Experiment: solubility and pH stability of OK-101 in sodium phosphate buffer
Type: physicochemical
Settings: read-out: concentration of OK-101 observed (solubility)
Description: The solubility and pH stability of OK-101 at a target concentration of 0.05% w/v, was tested in either 50 mM or 100 mM sodium phosphate buffer. For each concentration of sodium phosphate buffer, the solubility and pH stability were determined in three separate buffer batches, each with a different starting pH.

solubility (three batches of 50 mM sodium phosphate buffer): > 25 mg/mL
solubility (three batches of 100 mM sodium phosphate buffer): > 30 mg/mL
Structure (SMILES): CCCCCCCCCCCCCCCC(=O)NCCOCCOCCOCCOCCOCCOCCOCCOCCC(=O)NCC(=O)NCC(=O)N[C@H](Cc1ccc(O)cc1)C(=O)N[C@@H](Cc1ccccc1)C(=O)N[C@@H](CC(C)C)C(=O)N1CCC[C@H]1C(=O)N[C@H](CO)C(=O)N[C@@H](CCC(N)=O)C(=O)N[C@@H](Cc1ccccc1)C(=O)N[C@H](C)C(=O)N1Cc2ccccc2C[C@H]1C(=O)N[C@@H](CO)C(=O)O [OK-101] ({Palmitoyl-PEG8}-GG[dY]FLP[dS]QF[dA][Tic]S-OH)
